Assay results as given in patent publication US6858393B1, “Chain terminators for DNA synthesis” (Stratagene California, priority 2002, dated 2005).

System: DNA polymerase (JDF-3 P41OL/A485T)
Experiment: Assay for incorporation of chain terminators (primer extension, denaturing PAGE on ABI 377 sequencer)
Type: biochemical
Conditions: for terminator/dNTP ratio giving a similar pattern (signal strength and length): FIG. 8, ddATP lane 2, PME-App lane 3, dNTPs each at 50 μM, 25 cycles
Description: Reactions (20 μl) consisted of 0.5 pmol fluorescein-labeled primer pFI-20, 1 pmol pBluescript II, 5 U DNA polymerase (JDF-3 P41OL/A485T), all four dNTPs (each at 50 μM) and varying concentrations of only ddATP or PME-App in 20 mM Tris pH 8.8, 10 mM (NH4)2SO4, and 2 mM MgSO4. Reactions were incubated in a Perkin-Elmer 9600 for 25 cycles as follows: 95° C. for 30 s, 50° C. for 30 s and 72° C. for 4 min. The reactions were quenched with ice-cold 0.2 M EDTA (final concentration), dried, and the pellets dissolved in a 3:1 formamide: EDTA/blue dextran. Reactions were then analyzed by 6% denaturing PAGE on an ABI 377 sequencer.
The relative ratio can be determined more exactly by repeating the reactions over a narrower range of ratios.

| SMILES | terminator/dNTP ratio giving a similar pattern (signal strength and length) | relative incorporation efficiency of ddATP versus PME-App (ddATP better than PME-App, from comparison of lane patterns in FIG. 8, all four dNTPs each at 50 μM) [fold] |
| --- | --- | --- |
| Nc1ncnc2c1ncn2CCOCP(=O)(O)OP(=O)(O)OP(=O)(O)O [PME-App, PME-adenine diphosphate] | 1/5 |  |
| Nc1ncnc2c1ncn2[C@H]1CC[C@@H](COP(=O)(O)OP(=O)(O)OP(=O)(O)O)O1 [ddATP] | 1/10 | 2 |
